According to US20210255193A1, “LYSINE REACTIVE PROBES AND USES THEREOF” (The Scripps Research Institute, priority 2017, published 2021):
Each block holds one molecule with its values, some of them ahead of it.

How the values were obtained:
Test in all cases: competitive isoTOP-ABPP
Assay type in all cases: binding
[1] = target: T1, ERAP1 Endoplasmic reticulum aminopeptidase 1 (Homo sapiens, UniProt Q9NZ08)
T1 construct: endogenous in cells; host or cells: MDA-MB-231 lysate
In short: (§1)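 Fragments at 50 μM (activated esters) or 100 μM (guanidinylating agents) were incubated with 0.5 ml lysate before probe labeling. After 0.1 mM STP-alkyne for 1 h, samples were clicked to isotopically distinct TEV tags, and R taken as DMSO-over-compound MS1 peak-area ratio.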

STRN3 Striatin-3 = target: T2, STRN3 Striatin-3 (Homo sapiens, UniProt Q13033)
T2 construct: isoTOP-ABPP experiments performed in cell lysates (in vitro); endogenous in cells; host or cells: soluble proteome of human cancer cell lines (MDA-MB-231, Ramos, Jurkat)
T2 sequence (Q13033 1-797): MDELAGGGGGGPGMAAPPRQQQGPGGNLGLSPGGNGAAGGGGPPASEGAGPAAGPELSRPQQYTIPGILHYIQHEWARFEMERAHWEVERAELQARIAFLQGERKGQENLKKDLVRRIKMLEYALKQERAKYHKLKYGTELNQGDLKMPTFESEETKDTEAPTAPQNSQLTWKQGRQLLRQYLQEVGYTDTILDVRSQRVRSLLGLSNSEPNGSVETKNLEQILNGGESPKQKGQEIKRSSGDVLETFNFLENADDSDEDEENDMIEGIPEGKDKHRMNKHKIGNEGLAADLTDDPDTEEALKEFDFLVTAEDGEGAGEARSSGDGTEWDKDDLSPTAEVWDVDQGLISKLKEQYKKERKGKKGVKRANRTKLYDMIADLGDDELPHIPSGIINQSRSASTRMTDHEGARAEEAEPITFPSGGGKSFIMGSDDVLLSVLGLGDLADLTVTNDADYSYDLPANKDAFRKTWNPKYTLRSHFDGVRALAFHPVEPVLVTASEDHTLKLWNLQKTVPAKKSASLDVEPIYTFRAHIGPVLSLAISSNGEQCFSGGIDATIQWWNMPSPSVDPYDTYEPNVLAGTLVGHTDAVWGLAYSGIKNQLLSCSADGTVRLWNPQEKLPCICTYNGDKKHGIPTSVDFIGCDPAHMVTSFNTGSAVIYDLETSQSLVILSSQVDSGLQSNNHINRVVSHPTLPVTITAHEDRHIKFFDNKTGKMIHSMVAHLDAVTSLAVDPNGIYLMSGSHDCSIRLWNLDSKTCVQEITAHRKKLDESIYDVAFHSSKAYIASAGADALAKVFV
In short: as §1

[2] = target: T3, KIAA1967 DBIRD complex subunit KIAA1967 (Homo sapiens, UniProt Q8N163); settings: for isoTOP-ABPP reactivity ratio at lysine Q8N163_K97 / isoTOP-ABPP reactivity ratio at lysine Q8N163_K112 / R value (DMSO/fragment) for probe 1 labeling: 231 sol
T3 construct: isoTOP-ABPP experiments performed in cell lysates (in vitro); endogenous in cells; host or cells: soluble proteome of human cancer cell lines (MDA-MB-231; Ramos and Jurkat also prepared)
T3 sequence (Q8N163 whole entry, the tested form may be a part, one chain of several): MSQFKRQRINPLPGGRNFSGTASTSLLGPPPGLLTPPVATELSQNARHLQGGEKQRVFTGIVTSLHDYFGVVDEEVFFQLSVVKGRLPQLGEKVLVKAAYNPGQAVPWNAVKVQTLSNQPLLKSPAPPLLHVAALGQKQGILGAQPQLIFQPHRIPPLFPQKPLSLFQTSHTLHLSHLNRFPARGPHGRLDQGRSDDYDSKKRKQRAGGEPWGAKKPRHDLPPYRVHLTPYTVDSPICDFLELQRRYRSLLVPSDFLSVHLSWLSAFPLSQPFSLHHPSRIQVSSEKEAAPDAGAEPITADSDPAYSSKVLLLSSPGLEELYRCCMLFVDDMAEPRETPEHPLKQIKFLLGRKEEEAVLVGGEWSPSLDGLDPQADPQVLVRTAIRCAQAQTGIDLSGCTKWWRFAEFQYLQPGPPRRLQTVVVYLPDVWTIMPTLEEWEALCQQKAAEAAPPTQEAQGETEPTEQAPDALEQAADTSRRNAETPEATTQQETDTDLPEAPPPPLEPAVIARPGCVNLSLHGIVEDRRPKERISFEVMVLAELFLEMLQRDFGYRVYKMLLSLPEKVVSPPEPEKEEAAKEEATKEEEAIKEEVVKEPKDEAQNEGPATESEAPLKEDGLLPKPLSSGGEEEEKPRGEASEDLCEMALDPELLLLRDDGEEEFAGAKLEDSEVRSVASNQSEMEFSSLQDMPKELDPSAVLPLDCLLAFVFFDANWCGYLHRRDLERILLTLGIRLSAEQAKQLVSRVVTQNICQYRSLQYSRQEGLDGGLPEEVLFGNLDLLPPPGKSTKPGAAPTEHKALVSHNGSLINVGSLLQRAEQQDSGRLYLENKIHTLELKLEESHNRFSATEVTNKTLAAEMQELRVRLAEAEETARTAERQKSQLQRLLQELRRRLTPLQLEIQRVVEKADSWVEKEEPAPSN
In short: as §1

[3] = target: T4, DYNC1H1 Cytoplasmic dynein 1 heavy chain 1 (Homo sapiens, UniProt Q14204); settings: 50 uM, in vitro
T4 construct: isoTOP-ABPP experiments performed in cell lysates (in vitro); endogenous in cells; host or cells: soluble proteome of human cancer cell lines (MDA-MB-231, Ramos, Jurkat)
In short: as §1

[4] = target: T5, GLUD1 Glutamate dehydrogenase 1, mitochondrial (Homo sapiens, UniProt P00367); settings: for isoTOP-ABPP ratio, lysine P00367_K480: possible other lysine P00367_K477
T5 construct: isoTOP-ABPP experiments performed in cell lysates (in vitro); endogenous in cells; host or cells: MDA-MB-231 soluble lysate
T5 sequence (P00367 54-558): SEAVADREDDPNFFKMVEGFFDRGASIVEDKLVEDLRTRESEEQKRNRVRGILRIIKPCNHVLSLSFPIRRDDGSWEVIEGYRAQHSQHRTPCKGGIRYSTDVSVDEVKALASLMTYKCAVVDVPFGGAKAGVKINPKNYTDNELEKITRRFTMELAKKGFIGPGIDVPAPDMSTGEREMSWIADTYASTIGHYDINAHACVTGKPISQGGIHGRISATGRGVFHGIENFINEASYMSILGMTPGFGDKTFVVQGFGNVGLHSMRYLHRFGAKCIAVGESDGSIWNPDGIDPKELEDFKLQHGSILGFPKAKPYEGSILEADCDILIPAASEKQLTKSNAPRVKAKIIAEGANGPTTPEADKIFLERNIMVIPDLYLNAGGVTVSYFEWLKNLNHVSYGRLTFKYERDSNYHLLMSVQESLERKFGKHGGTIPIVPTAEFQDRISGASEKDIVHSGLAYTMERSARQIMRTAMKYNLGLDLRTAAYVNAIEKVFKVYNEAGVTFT
In short: as §1

EEF2 Elongation factor 2 = target: T6, EEF2 Elongation factor 2 (Homo sapiens, UniProt P13639)
T6 construct: isoTOP-ABPP experiments performed in cell lysates (in vitro); endogenous in cells; host or cells: soluble proteome of human cancer cell lines (MDA-MB-231; Ramos and Jurkat also prepared)
In short: as §1

[5] = target: T7, NAA25 N-alpha-acetyltransferase 25, NatB auxiliary subunit (Homo sapiens, UniProt Q14CX7)
T7 construct: isoTOP-ABPP experiments performed in cell lysates (in vitro); endogenous in cells; host or cells: soluble proteome of human cancer cell lines (MDA-MB-231; Ramos and Jurkat also prepared)
T7 sequence (Q14CX7 whole entry): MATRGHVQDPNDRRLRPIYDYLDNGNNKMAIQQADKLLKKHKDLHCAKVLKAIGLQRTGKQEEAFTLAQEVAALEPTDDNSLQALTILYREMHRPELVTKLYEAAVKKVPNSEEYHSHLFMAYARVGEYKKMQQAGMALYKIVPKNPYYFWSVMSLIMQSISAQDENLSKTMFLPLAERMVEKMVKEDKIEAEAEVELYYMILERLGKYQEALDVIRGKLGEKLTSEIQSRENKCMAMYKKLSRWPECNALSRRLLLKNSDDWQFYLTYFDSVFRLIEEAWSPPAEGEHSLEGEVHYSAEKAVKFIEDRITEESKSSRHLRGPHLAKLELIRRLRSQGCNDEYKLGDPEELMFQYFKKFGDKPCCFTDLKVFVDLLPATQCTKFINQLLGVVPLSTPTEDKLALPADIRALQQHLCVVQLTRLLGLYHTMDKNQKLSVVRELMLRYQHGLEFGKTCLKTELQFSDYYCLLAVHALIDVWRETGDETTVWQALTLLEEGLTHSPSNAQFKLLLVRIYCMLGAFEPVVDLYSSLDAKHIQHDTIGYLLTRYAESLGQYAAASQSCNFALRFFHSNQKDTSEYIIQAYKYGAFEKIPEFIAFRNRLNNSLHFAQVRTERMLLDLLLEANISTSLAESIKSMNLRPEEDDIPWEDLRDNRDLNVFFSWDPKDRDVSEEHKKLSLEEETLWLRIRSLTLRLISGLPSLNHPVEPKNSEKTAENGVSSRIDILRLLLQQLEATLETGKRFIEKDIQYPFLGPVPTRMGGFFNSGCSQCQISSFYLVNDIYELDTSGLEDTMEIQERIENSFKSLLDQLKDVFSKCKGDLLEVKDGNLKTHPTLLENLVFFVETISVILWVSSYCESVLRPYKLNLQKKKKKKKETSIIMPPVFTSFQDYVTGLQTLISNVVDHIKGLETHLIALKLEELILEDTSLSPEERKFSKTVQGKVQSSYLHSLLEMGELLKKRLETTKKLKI
In short: as §1

T1 sequence (Q9NZ08 whole entry): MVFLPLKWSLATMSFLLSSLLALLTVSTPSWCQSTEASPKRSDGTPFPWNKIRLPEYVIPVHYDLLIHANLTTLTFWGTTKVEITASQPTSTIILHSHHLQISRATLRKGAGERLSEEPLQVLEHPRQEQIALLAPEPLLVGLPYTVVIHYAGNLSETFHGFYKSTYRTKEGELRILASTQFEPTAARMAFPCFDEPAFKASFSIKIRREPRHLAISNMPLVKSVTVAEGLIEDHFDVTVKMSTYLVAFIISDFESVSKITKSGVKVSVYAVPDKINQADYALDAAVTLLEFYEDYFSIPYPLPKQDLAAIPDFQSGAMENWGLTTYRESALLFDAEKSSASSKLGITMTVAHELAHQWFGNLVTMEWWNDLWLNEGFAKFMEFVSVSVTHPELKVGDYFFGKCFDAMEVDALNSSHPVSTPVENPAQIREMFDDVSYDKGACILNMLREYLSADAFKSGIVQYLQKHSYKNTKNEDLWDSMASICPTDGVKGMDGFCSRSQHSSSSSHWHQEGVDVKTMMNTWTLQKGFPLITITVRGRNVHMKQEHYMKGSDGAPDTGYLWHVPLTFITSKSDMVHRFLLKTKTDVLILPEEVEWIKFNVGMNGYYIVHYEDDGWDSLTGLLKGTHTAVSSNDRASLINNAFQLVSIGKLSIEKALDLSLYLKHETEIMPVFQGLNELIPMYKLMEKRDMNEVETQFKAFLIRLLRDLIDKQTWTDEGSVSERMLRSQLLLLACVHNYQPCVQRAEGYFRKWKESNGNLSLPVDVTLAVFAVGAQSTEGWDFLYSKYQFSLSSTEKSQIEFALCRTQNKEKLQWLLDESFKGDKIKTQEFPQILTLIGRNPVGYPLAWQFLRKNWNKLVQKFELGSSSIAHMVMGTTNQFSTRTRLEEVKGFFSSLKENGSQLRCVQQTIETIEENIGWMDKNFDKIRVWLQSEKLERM

Compound: O=C(Oc1ccc([N+](=O)[O-])cc1[N+](=O)[O-])c1ccc(Oc2ccccc2)cc1 [fragment 39, 2,4-Dinitrophenyl 4-phenoxybenzoate]
isoTOP-ABPP ratio (R) at liganded lysine Q9NZ08_K685 ([1]; 50 uM, in vitro, sol, 231): 1.0
isoTOP-ABPP ratio (R) at liganded lysine Q13033_K755 (STRN3 Striatin-3; 50 uM, in vitro, sol, 231): 0.9
isoTOP-ABPP ratio (R) at liganded lysine Q8N163_K97 ([2]; 50 uM, in vitro, sol, 231): 0.9
isoTOP-ABPP ratio (R) at liganded lysine Q8N163_K112 ([2]; 50 uM, in vitro, sol, 231): 1.1
isoTOP-ABPP ratio (R) at liganded lysine Q14204_K1649 ([3]; sol, 231): 1.0
isoTOP-ABPP ratio (R) at liganded lysine P00367_K480 ([4]; 50 uM, in vitro, sol, 231): 1.0
isoTOP-ABPP ratio (R) at liganded lysine P13639_K235 (EEF2 Elongation factor 2; 50 uM, in vitro, sol, 231): 0.9
isoTOP-ABPP ratio (R) at liganded lysine P13639_K318 (EEF2 Elongation factor 2; 50 uM, in vitro, sol, 231): 0.9
isoTOP-ABPP ratio (R) at liganded lysine Q14CX7_K575 ([5]; 50 uM, in vitro, sol, 231): 1.0

isoTOP-ABPP reactivity ratio at lysine Q9NZ08_K685 ([1]; 50 uM, 231 sol, in vitro): 1.9
isoTOP-ABPP reactivity ratio at lysine Q13033_K755 (STRN3 Striatin-3; 50 uM, 231 sol, in vitro): 1.0
isoTOP-ABPP reactivity ratio at lysine Q8N163_K97 ([2]; 50 uM, in vitro): 0.7
isoTOP-ABPP reactivity ratio at lysine Q8N163_K112 ([2]; 50 uM, in vitro): 1.1
isoTOP-ABPP reactivity ratio at lysine Q14204_K1649 ([3]; 231 sol): 1.7
isoTOP-ABPP reactivity ratio at lysine P00367_K480 ([4]; 50 uM, 231 sol, in vitro): 1.2
isoTOP-ABPP reactivity ratio at lysine P13639_K235 (EEF2 Elongation factor 2; 50 uM, 231 sol, in vitro): 1.9
isoTOP-ABPP reactivity ratio at lysine P13639_K318 (EEF2 Elongation factor 2; 50 uM, 231 sol, in vitro): 2.3
isoTOP-ABPP reactivity ratio at lysine Q14CX7_K575 ([5]; 50 uM, 231 sol, in vitro): 0.9
Compound: O=C(Oc1c(F)c(F)c(F)c(F)c1F)c1ccc2ccccc2n1 [fragment 25, Pentafluorophenyl quinoline-2-carboxylate]

isoTOP-ABPP reactivity ratio at lysine Q9NZ08_K685 ([1]; 50 uM, 231 sol, in vitro): 5.7
isoTOP-ABPP reactivity ratio at lysine Q13033_K755 (STRN3 Striatin-3; 50 uM, 231 sol, in vitro): 1.0
isoTOP-ABPP reactivity ratio at lysine Q8N163_K97 ([2]; 50 uM, in vitro): 0.9
isoTOP-ABPP reactivity ratio at lysine Q8N163_K112 ([2]; 50 uM, in vitro): 1.2
isoTOP-ABPP reactivity ratio at lysine Q14204_K1649 ([3]; 231 sol): 4.2
isoTOP-ABPP reactivity ratio at lysine P00367_K480 ([4]; 50 uM, 231 sol, in vitro): 2.0
isoTOP-ABPP reactivity ratio at lysine P13639_K235 (EEF2 Elongation factor 2; 50 uM, 231 sol, in vitro): 5.7
isoTOP-ABPP reactivity ratio at lysine Q14CX7_K575 ([5]; 50 uM, 231 sol, in vitro): 1.4
Compound: O=C(CN1C(=O)c2ccccc2C1=O)Oc1c(F)c(F)c(F)c(F)c1F [fragment 27, Pentafluorophenyl 2-(1,3-dioxoisoindolin-2-yl)acetate]

R value (DMSO/fragment) for probe 1 labeling ([1]; Q9NZ08_K685, 50 uM, 231 sol, in vitro): 1.4
R value (DMSO/fragment) for probe 1 labeling (STRN3 Striatin-3; Q13033_K755, 50 uM, 231 sol, in vitro): 0.9
R value (DMSO/fragment) for probe 1 labeling ([2]; Q8N163_K97, 50 uM, in vitro): 0.7
R value (DMSO/fragment) for probe 1 labeling ([2]; Q8N163_K112, 50 uM, in vitro): 1.0
R value (DMSO/fragment) for probe 1 labeling ([3]; Q14204_K1649, 231 sol): 1.4
R value (DMSO/fragment) for probe 1 labeling ([4]; P00367_K480, 50 uM, 231 sol, in vitro): 1.2
R value (DMSO/fragment) for probe 1 labeling (EEF2 Elongation factor 2; P13639_K235, 50 uM, 231 sol, in vitro): 1.1
R value (DMSO/fragment) for probe 1 labeling (EEF2 Elongation factor 2; P13639_K318, 50 uM, 231 sol, in vitro): 1.2
R value (DMSO/fragment) for probe 1 labeling ([5]; Q14CX7_K575, 50 uM, 231 sol, in vitro): 0.9
Compound: O=C(Oc1c(F)c(F)c(F)c(F)c1F)c1cc(C(F)(F)F)cc(C(F)(F)F)c1 [fragment 21, Pentafluorophenyl 3,5-bis(trifluoromethyl)benzoate]

isoTOP-ABPP ratio, lysine Q9NZ08_K685 ([1]; 100 uM_231_sol_in vitro): 1.6
isoTOP-ABPP ratio, lysine Q13033_K755 (STRN3 Striatin-3; 100 uM_231_sol_in vitro): 1.8
isoTOP-ABPP ratio, lysine Q8N163_K97 ([2]; 100 uM_231_sol_in vitro): 9.4
isoTOP-ABPP ratio, lysine Q8N163_K112 ([2]; 100 uM_231_sol_in vitro): 20.0
isoTOP-ABPP ratio, lysine P00367_K480 ([4]; 100 uM_231_sol_in vitro): 2.0
isoTOP-ABPP ratio, lysine P13639_K235 (EEF2 Elongation factor 2; 100 uM_231_sol_in vitro): 6.2
isoTOP-ABPP ratio, lysine P13639_K318 (EEF2 Elongation factor 2; 100 uM_231_sol_in vitro): 2.0
isoTOP-ABPP ratio, lysine Q14CX7_K575 ([5]; 100 uM_231_sol_in vitro): 1.1
Compound: COC(=O)NC(=NC(=O)OCC1c2ccccc2-c2ccccc21)n1cccn1 [fragment 49, N-Methoxycarbonyl-N′-9-fluorenylmethoxycarbonyl-pyrazole-1-carboxamidine]

isoTOP-ABPP ratio, lysine Q9NZ08_K685 ([1]; 50 uM_231_sol_in vitro): 1.5
isoTOP-ABPP ratio, lysine Q13033_K755 (STRN3 Striatin-3; 50 uM_231_sol_in vitro): 1.2
isoTOP-ABPP ratio, lysine Q8N163_K97 ([2]; 50 uM_231_sol_in vitro): 0.6
isoTOP-ABPP ratio, lysine Q8N163_K112 ([2]; 50 uM_231_sol_in vitro): 1.0
isoTOP-ABPP ratio, lysine P00367_K480 ([4]; 50 uM_231_sol_in vitro): 1.5
isoTOP-ABPP ratio, lysine P13639_K235 (EEF2 Elongation factor 2; 50 uM_231_sol_in vitro): 1.2
isoTOP-ABPP ratio, lysine P13639_K318 (EEF2 Elongation factor 2; 50 uM_231_sol_in vitro): 1.1
isoTOP-ABPP ratio, lysine Q14CX7_K575 ([5]; 50 uM_231_sol_in vitro): 1.1
Compound: O=C(Oc1c(F)c(F)cc(F)c1F)c1cc(C(F)(F)F)cc(C(F)(F)F)c1 [fragment 48, 2,3,5,6-Tetrafluorophenyl 3,5-bis(trifluoromethyl)benzoate]
